Results on twelve compounds are retold here after publication PMC9863159, “Isolation and Identification of Lipid-Lowering Peptides from Sacha Inchi Meal” (International Journal of Molecular Sciences, 2023).

As usually defined, the IC50 is the point on the concentration scale where inhibition reaches its midpoint. One may read the Ki as the dissociation constant of the complex between target and ligand, obtained from inhibition or displacement. One may read the Kd as the free concentration of one partner at which half of the binding sites on the other are occupied at equilibrium, for simple one-to-one binding. Read a high Kd as a looser complex.

Where two headings read alike, the source gives them in different places. Peptide text beside a SMILES is read from it.

The target in assay [1] is T1, pancreatic lipase (Sus scrofa, UniProt P00591).
T1 sequence (P00591 1-450): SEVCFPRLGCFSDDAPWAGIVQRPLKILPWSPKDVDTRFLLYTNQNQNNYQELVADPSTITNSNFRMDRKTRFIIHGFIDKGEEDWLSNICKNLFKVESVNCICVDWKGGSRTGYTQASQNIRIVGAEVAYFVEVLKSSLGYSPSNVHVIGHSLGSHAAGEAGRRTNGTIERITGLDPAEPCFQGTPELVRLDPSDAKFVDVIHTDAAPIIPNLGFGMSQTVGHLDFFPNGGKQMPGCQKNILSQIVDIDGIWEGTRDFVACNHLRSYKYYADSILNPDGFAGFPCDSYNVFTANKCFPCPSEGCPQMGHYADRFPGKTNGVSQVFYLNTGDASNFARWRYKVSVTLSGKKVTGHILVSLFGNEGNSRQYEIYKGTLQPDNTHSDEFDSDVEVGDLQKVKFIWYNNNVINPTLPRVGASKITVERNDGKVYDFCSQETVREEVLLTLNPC
As to the kind of experiment: Pancreatic lipase inhibitory activity (4-MUO fluorescence). It is filed as biochemical. As to conditions: for inhibition at 500 µM: peptide concentration 0.5 mM, read-out: inhibitory percentage on pancreatic lipase; for IC50: read-out: IC50 against pancreatic lipase. The method, then: The sample was diluted to an appropriate concentration with Tris HCl buffer. […] The fluorescence intensity was measured at excitation wavelength λex = 320 nm and emission wavelength λem = 450 nm. A buffer (25 μL) and enzyme solution (25 μL) were added for the control group. A sample solution (25 μL) and buffer (25 μL) were added for background group. Each group of experiments was repeated 3 times. The calculation formula of pancreatic lipase inhibition rate was as follows:(1) Lipase inhibition rate (%)=(1−FLUsample−FLUbackground/FLUnegative control−FLUnegative background)×100
Among them, FLUsample was the light absorption value of the experimental group; FLUbackground was the light absorption value of the sample background group; FLUnegative control was the absorbance value of the control group without samples; and FLUnegative background was the absorbance value of the background of the control group.

The target of assay [2] is T1, pancreatic lipase. As to the kind of experiment: Inhibition kinetics of pancreatic lipase (Lineweaver–Burk). It is filed as biochemical. As to conditions: read-out: equilibrium constant Ki. Here is the method: In total, a 25 μL sample solution of different concentrations, a 25 μL enzyme solution, and 50 μL substrates with different concentrations were added to the 96-well plate. The fluorescence value FLU was immediately measured at the excitation wavelength λex = 320 nm and emission wavelength λem = […], every 1 min within 20 min, and each group of experiments was repeated 3 times. The slope of the “fluorescence value-time” linear fitting curve represented the reaction rate of the enzyme in the presence of the sample. The Lineweaver–Burk double reciprocal diagram was drawn to analyze the inhibition type of synthetic peptides on enzymes.

The target in assay [3] is T1, pancreatic lipase. As to the kind of experiment: Fluorescence quenching assay of pancreatic lipase. As to conditions: binding constant Ka, Table S2.
The test system of another assay is HepG2 cells. As to the kind of experiment: Fat accumulation (oil red O) and triglyceride content in oleic acid-induced HepG2. It is filed as cell-based. As to conditions: orlistat positive control 2 mM, peptides at different concentrations.
Assay [4] addresses T1, pancreatic lipase. Also noted: method as in PMID 36195236. As to conditions: peptides from sesame proteins ref 6; cited from earlier work.
A further assay deals with 3T3-L1 preadipocytes. Set-up: method as in doi:10.1016/j.jff.2018.05.066. The settings on record: 600 μg/mL, compared with the control ref 24; cited from earlier work.
For assay [5], the system named is porcine pancreatic lipase. Set-up: method as in PMID 31569521. As to conditions: 200 µg/mL ref 25; cited from earlier work.
For the next assay, the system named is 3T3-L1 cells. Set-up: method as in PMID 31569521. The settings on record: 600 µg/mL, 3T3-L1 cells ref 25; cited from earlier work.
For assay [6] the following is noted: cited from earlier work.

Description for HepG2 cells: The HepG2 cells (Guangzhou Health Institute, Guangzhou, China) in logarithmic growth period were starved with serum-free medium for 12 h. Then, we replaced the medium with a complete medium containing 0.5 mM oleic acid and 0.4% FBS, and cultured this for 2–4 days (replacing the new oleic acid containing medium every day). The cells were divided into groups, and samples were added to each group as follows: Normal group: 1 mL of complete medium containing 0.4% serum; Model group: 1 mL of medium containing 0.5 mM oleic acid and 0.4% FBS; Positive control group: 1 mL of medium containing 2 mM orlistat, 0.5 mM oleic acid and 0.4% FBS; Sample treatment group: adding 1 mL of samples with different concentrations (high, medium, low) and medium containing 0.5 mM oleic acid and 0.4% FBS. […] Then, the paraformaldehyde solution was discarded, PBS was washed 3 times, and 1 mL of oil red O staining solution was added to each well. After dyeing at 37 °C for 1 h, the dye solution was discarded, washed with PBS 3 times, and 1 mL of PBS was added to prevent cell drying. […] According to the instructions of the triglyceride (TG) test box, the TG content of each well was measured using the GPO-PAP method, and the protein content was measured using the BCA method. The results were expressed as the triglyceride content per gram of protein (mmol/g protein).

On to `CSCC[C@H](NC(=O)[C@H](CC(C)C)NC(=O)[C@H](CC(C)C)NC(=O)CNC(=O)[C@@H](N)CCC(=O)O)C(=O)N[C@@H](Cc1c[nH]c2ccccc12)C(=O)N1CCC[C@H]1C(=O)N[C@@H](Cc1ccc(O)cc1)C(=O)O` [EY-8] (H-EGLLMWPY-OH), for which, on pancreatic lipase [1], the inhibition at 500 µM is 80.47 ± 0.11% and the IC50 was found to be 171 µM. The Ki on pancreatic lipase [2] turned out to be 578 ± 58.1 µM.

Take `CC(C)C[C@H](NC(=O)[C@@H](N)CC(N)=O)C(=O)N[C@@H](Cc1ccc(O)cc1)C(=O)N[C@@H](Cc1ccc(O)cc1)C(=O)N[C@@H](CCCCN)C(=O)N[C@H](C(=O)N[C@H](C(=O)O)C(C)C)C(C)C` [NV-7, NLYYKVV] (H-NLYYKVV-OH): the inhibition at 500 µM at pancreatic lipase [1] was 95.42 ± 0.6%. The inhibitory constant (Ki) on pancreatic lipase [2] was determined as 77.3 ± 7.65 µM. Further, the Kd on pancreatic lipase [3] (298 K) was 93.8 µM; at pancreatic lipase [3] (304 K) it was 106 µM; at pancreatic lipase [3] (310 K), 203 µM. Turning to `CC(C)[C@H](NC(=O)[C@H](Cc1ccc(O)cc1)NC(=O)[C@H](Cc1c[nH]c2ccccc12)NC(=O)[C@@H](N)Cc1c[nH]c2ccccc12)C(=O)N[C@@H](CCCCN)C(=O)O` [WK-5, WWYVK] (H-WWYVK-OH), on pancreatic lipase [1], the inhibition at 500 µM was 68.9 ± 1.8% and the half-inhibitory concentration (IC50) was 246 µM. For the same compound, the Ki at pancreatic lipase [2] came out at 578 ± 25.7 µM. For `CSCC[C@H](NC(=O)[C@H](CC(C)C)NC(=O)[C@H](CC(C)C)NC(=O)[C@@H](N)Cc1c[nH]c2ccccc12)C(=O)N[C@@H](Cc1c[nH]c2ccccc12)C(=O)N1CCC[C@H]1C(=O)N[C@@H](Cc1ccc(O)cc1)C(=O)N[C@@H](CCCCN)C(=O)O` [WK-8] (H-WLLMWPYK-OH), in that order: 67.3 ± 1.1%, 52.8 µM and 192 ± 25.3 µM. For the compound `CCCCCCCCCCC[C@@H](C[C@@H]1OC(=O)[C@H]1CCCCCC)OC(=O)[C@H](CC(C)C)NC=O` [orlistat], the “fat (oil) accumulation in HepG2 cells, oil red O staining” value with HepG2 cells is given as “significantly reduce the oil accumulation in cells”. As for AGY, the IC50 at pancreatic lipase [4] was 1180 ± 179 µM. With CANPHELPNK, the “inhibition on triglyceride production” value in the assay with 3T3-L1 preadipocytes was 19.5%. Turning to “Leu-Leu-Val-Val-Try-Pro-Trp-Thr-Gln-Arg [PP1]”, in assay [5], the “inhibitory effect against porcine pancreatic lipase” value is given as 47.95%. For the same compound, the “decrease of accumulation of intracellular triacylglycerol” value with 3T3-L1 cells is given as 27.9%. As for NIF, the half-maximal inhibitory concentration (IC50) at pancreatic lipase [4] was 1040 ± 179 µM. For NPVWKRK, the “inhibition on triglyceride production” value in the assay with 3T3-L1 preadipocytes is listed as 23.7%. Take QWM: the IC50 at pancreatic lipase [4] was 986 ± 170 µM. VVYP: the effect on hypertriglyceridemia result in assay [6] is given as “inhibitory effect on hypertriglyceridemia”.
